Laboratory results reported in patent US20230365592A1 (Agios Pharmaceuticals, Inc., priority 2022, published 2023).

Biological target: T1, human PAH with the R408W mutation (Homo sapiens, UniProt P00439, R408W)
T1 construct: expressed in transfected cells
T1 sequence (P00439 1-452 R408W): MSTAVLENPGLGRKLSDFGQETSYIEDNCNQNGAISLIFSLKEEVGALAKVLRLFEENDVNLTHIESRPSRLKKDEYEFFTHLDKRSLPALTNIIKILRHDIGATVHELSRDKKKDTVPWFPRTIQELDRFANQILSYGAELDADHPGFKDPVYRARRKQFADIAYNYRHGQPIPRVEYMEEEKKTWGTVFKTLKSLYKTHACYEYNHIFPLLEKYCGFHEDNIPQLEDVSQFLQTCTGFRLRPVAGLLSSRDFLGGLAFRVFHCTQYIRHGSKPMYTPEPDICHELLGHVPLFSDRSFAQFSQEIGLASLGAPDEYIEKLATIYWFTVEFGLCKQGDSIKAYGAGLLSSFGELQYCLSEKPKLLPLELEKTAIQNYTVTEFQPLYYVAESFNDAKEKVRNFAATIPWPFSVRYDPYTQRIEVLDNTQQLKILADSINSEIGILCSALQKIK
Assay: Cell Based Phenylalanine Flux Assay;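 also: after compound treatment, cells received sepiapterin plus isotope-labelled Phenylalanine for 4 hours, then labelled Tyrosine in the medium was quantified, 10-point 2-fold dilution series run in duplicate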
Details: A375 cells expressing human R408W PAH; 24 hrs compound incubation; 13C-Tyrosine by LC-MS; average where tested multiple times; read-out: AC50

First: CC(C)(O)c1nc(C2CC2)c(C(=O)N2CCc3[nH]cnc3[C@@H]2c2cc3ccccn3n2)o1 [Example 625, (R)-(4-cyclopropyl-2-(2-hydroxypropan-2-yl)oxazol-5-yl)(4-(pyrazolo[1,5-a]pyridin-2-yl)-6,7-dihydro-1H-imidazo[4,5-c]pyridin-5(4H)-yl)methanone]
Second: CC(C)(O)c1nc(C(F)(F)F)c(C(=O)N2CCc3[nH]cnc3[C@H]2c2cc3ccccn3n2)o1 [Example 628, (S)-(2-(2-hydroxypropan-2-yl)-4-(trifluoromethyl)oxazol-5-yl)(4-(pyrazolo[1,5-a]pyridin-2-yl)-6,7-dihydro-1H-imidazo[4,5-c)pyridin-5(4H)-yl)methanone]
The AC50 of the first is higher: 1 to 5 µM for the first, < 0.5 µM for the second.

`Cn1cc(-c2nnc(C(=O)N3CCc4[nH]cnc4[C@H]3c3cc4ccccn4n3)o2)cn1` [Example 626, (S)-(5-(1-methyl-1H-pyrazol-4-yl)-1,3,4-oxadiazol-2-yl)(4-(pyrazolo[1,5-a]pyridin-2-yl)-6,7-dihydro-1H-imidazo[4,5-c]pyridin-5(4H)-yl)methanone] and `O=C(c1nnc(-c2cnn(C(F)F)c2)o1)N1CCc2[nH]cnc2[C@H]1c1cc2ccccn2n1` [Example 650, (S)-(5-(1-(difluoromethyl)-1H-pyrazol-4-yl)-1,3,4-oxadiazol-2-yl)(4-(pyrazolo[1,5-a]pyridin-2-yl)-6,7-dihydro-1H-imidazo[4,5-c]pyridin-5(4H)-yl)methanone] fall in the same range of AC50: 1 to 5 µM for the first, 1 to 5 µM for the second.

First: CC(C)(O)c1nc(C(F)(F)F)c(C(=O)N2CCc3[nH]cnc3[C@@H]2c2cc3ccccn3n2)o1 [Example 629, (R)-(2-(2-hydroxypropan-2-yl)-4-(trifluoromethyl)oxazol-5-yl)(4-(pyrazolo[1,5-a]pyridin-2-yl)-6,7-dihydro-1H-imidazo[4,5-c]pyridin-5(4H)-yl)methanone]
Second: O=C(c1ocnc1C(F)F)N1CCc2[nH]cnc2[C@H]1c1cc2ccccn2n1 [Example 630, (S)-(4-(difluoromethyl)oxazol-5-yl)(4-(pyrazolo[1,5-a]pyridin-2-yl)-6,7-dihydro-1H-imidazo[4,5-c]pyridin-5(4H)-yl)methanone]
The AC50 of the first is higher: 1 to 5 µM for the first, < 0.5 µM for the second.

First: O=C(c1ocnc1C(F)F)N1CCc2[nH]cnc2[C@@H]1c1cc2ccccn2n1 [Example 631, (R)-(4-(difluoromethyl)oxazol-5-yl)(4-(pyrazolo[1,5-a]pyridin-2-yl)-6,7-dihydro-1H-imidazo[4,5-c]pyridin-5(4H)-yl)methanone]
Second: O=C(c1oc(C2CC2)nc1C(F)F)N1CCc2[nH]cnc2[C@H]1c1cc2ccccn2n1 [Example 632, (S)-(2-cyclopropyl-4-(difluoromethyl)oxazol-5-yl)(4-(pyrazolo[1,5-a]pyridin-2-yl)-6,7-dihydro-1H-imidazo[4,5-c]pyridin-5(4H)-yl)methanone]
The AC50 of the first is higher: 1 to 5 µM for the first, < 0.5 µM for the second.

Going from `O=C(c1oc(C2CC2)nc1C(F)F)N1CCc2[nH]cnc2[C@@H]1c1cc2ccccn2n1` [Example 633, (R)-(2-cyclopropyl-4-(difluoromethyl)oxazol-5-yl)(4-(pyrazolo[1,5-a]pyridin-2-yl)-6,7-dihydro-1H-imidazo[4,5-c]pyridin-5(4H)-yl)methanone] to `O=C(c1oc(-c2ccccn2)nc1C(F)F)N1CCc2[nH]cnc2[C@H]1c1cc2ccccn2n1` [Example 644, (S)-(4-(difluoromethyl)-2-(pyridin-2-yl)oxazol-5-yl)(4-(pyrazolo[1,5-a]pyridin-2-yl)-6,7-dihydro-1H-imidazo[4,5-c]pyridin-5(4H)-yl)methanone], the AC50 falls from > 5 µM to < 0.5 µM.

First: O=C(CC1(O)CCC1)N1CCc2[nH]cnc2[C@H]1c1cc2ccccn2n1 [Example 634, (S)-2-(1-hydroxycyclobutyl)-1-(4-(pyrazolo[1,5-a]pyridin-2-yl)-6,7-dihydro-1H-imidazo[4,5-c]pyridin-5(4H)-yl)ethanone]
Second: O=C(CC1(O)CCC1)N1CCc2[nH]cnc2[C@@H]1c1cc2ccccn2n1 [Example 635, (R)-2-(1-hydroxycyclobutyl)-1-(4-(pyrazolo[1,5-a]pyridin-2-yl)-6,7-dihydro-1H-imidazo[4,5-c]pyridin-5(4H)-yl)ethanone]
The AC50 of the first is lower: < 0.5 µM for the first, 1 to 5 µM for the second.

First: O=C(N1CCc2[nH]cnc2[C@H]1c1cc2ccccn2n1)C(F)(F)C1(O)CCC1 [Example 638, (S)-2,2-difluoro-2-(1-hydroxycyclobutyl)-1-(4-(pyrazolo[1,5-a]pyridin-2-yl)-6,7-dihydro-1H-imidazo[4,5-c]pyridin-5(4H)-yl)ethanone]
Second: O=C(N1CCc2[nH]cnc2[C@@H]1c1cc2ccccn2n1)C(F)(F)C1(O)CCC1 [Example 639, (R)-2,2-difluoro-2-(1-hydroxycyclobutyl)-1-(4-(pyrazolo[1,5-a]pyridin-2-yl)-6,7-dihydro-1H-imidazo[4,5-c]pyridin-5(4H)-yl)ethanone]
The AC50 of the first is lower: < 0.5 µM for the first, 1 to 5 µM for the second.

First: O=C(c1nnc(-c2ccc(C(F)(F)F)cc2)o1)N1CCc2[nH]cnc2[C@H]1c1cc2ccccn2n1 [Example 642, (S)-(4-(pyrazolo[1,5-a]pyridin-2-yl)-6,7-dihydro-1H-imidazo[4,5-c]pyridin-5(4H)-yl)(5-(4-(trifluoromethyl)phenyl)-1,3,4-oxadiazol-2-yl)methanone]
Second: O=C(c1nnc(-c2ccc(C(F)(F)F)cc2)o1)N1CCc2[nH]cnc2[C@@H]1c1cc2ccccn2n1 [Example 643, (R)-(4-(pyrazolo[1,5-a]pyridin-2-yl)-6,7-dihydro-1H-imidazo[4,5-c]pyridin-5(4H)-yl)(5-(4-(trifluoromethyl)phenyl)-1,3,4-oxadiazol-2-yl)methanone]
The AC50 of the first is lower: 0.5 to 1 µM for the first, > 5 µM for the second.

Compared with `O=C(c1oc(-c2ccccn2)nc1C(F)F)N1CCc2[nH]cnc2[C@@H]1c1cc2ccccn2n1` [Example 645, (R)-(4-(difluoromethyl)-2-(pyridin-2-yl)oxazol-5-yl)(4-(pyrazolo[1,5-a]pyridin-2-yl)-6,7-dihydro-1H-imidazo[4,5-c]pyridin-5(4H)-yl)methanone], `O=C(c1ccnn1C(F)F)N1CCc2[nH]cnc2[C@H]1c1cc2ccccn2n1` [Example 656, (S)-(1-(difluoromethyl)-1H-pyrazol-5-yl)(4-(pyrazolo[1,5-a]pyridin-2-yl)-6,7-dihydro-1H-imidazo[4,5-c]pyridin-5(4H)-yl)methanone] is lower in AC50: 1 to 5 µM for the first, < 0.5 µM for the second.

Compared with `O=C(c1nnc(-c2cnn(CC(F)(F)F)c2)o1)N1CCc2[nH]cnc2[C@H]1c1cc2ccccn2n1` [Example 646, (S)-(4-(pyrazolo[1,5-a]pyridin-2-yl)-6,7-dihydro-1H-imidazo[4,5-c]pyridin-5(4H)-yl)(5-(1-(2,2,2-trifluoroethyl)-1H-pyrazol-4-yl)-1,3,4-oxadiazol-2-yl)methanone], `O=C(c1nnc(-c2cnn(CC(F)(F)F)c2)o1)N1CCc2[nH]cnc2[C@@H]1c1cc2ccccn2n1` [Example 647, (R)-(4-(pyrazolo[1,5-a]pyridin-2-yl)-6,7-dihydro-1H-imidazo[4,5-c]pyridin-5(4H)-yl)(5-(1-(2,2,2-trifluoroethyl)-1H-pyrazol-4-yl)-1,3,4-oxadiazol-2-yl)methanone] is higher in AC50: 1 to 5 µM for the first, > 5 µM for the second.

First: O=C(c1nnc(-c2ccc(F)c(F)c2)o1)N1CCc2[nH]cnc2[C@H]1c1cc2ccccn2n1 [Example 648, (S)-(5-(3,4-difluorophenyl)-1,3,4-oxadiazol-2-yl)(4-(pyrazolo[1,5-a]pyridin-2-yl)-6,7-dihydro-1H-imidazo[4,5-c]pyridin-5(4H)-yl)methanone]
Second: O=C(c1nnc(-c2ccc(F)c(F)c2)o1)N1CCc2[nH]cnc2[C@@H]1c1cc2ccccn2n1 [Example 649, (R)-(5-(3,4-difluorophenyl)-1,3,4-oxadiazol-2-yl)(4-(pyrazolo[1,5-a]pyridin-2-yl)-6,7-dihydro-1H-imidazo[4,5-c]pyridin-5(4H)-yl)methanone]
The AC50 of the first is lower: < 0.5 µM for the first, > 5 µM for the second.

Compared with `O=C(c1nnc(-c2cnn(C(F)F)c2)o1)N1CCc2[nH]cnc2[C@@H]1c1cc2ccccn2n1` [Example 651, (R)-(5-(1-(difluoromethyl)-1H-pyrazol-4-yl)-1,3,4-oxadiazol-2-yl)(4-(pyrazolo[1,5-a]pyridin-2-yl)-6,7-dihydro-1H-imidazo[4,5-c]pyridin-5(4H)-yl)methanone], `O=C(c1ccnn1C(F)F)N1CCc2[nH]cnc2[C@@H]1c1cc2ccccn2n1` [Example 657, (R)-(1-(difluoromethyl)-1H-pyrazol-5-yl)(4-(pyrazolo[1,5-a]pyridin-2-yl)-6,7-dihydro-1H-imidazo[4,5-c]pyridin-5(4H)-yl)methanone] is higher in AC50: 1 to 5 µM for the first, > 5 µM for the second.

Going from `O=C(c1nnc(-c2ccc(F)cc2F)o1)N1CCc2[nH]cnc2[C@H]1c1cc2ccccn2n1` [Example 652, (S)-(5-(2,4-difluorophenyl)-1,3,4-oxadiazol-2-yl)(4-(pyrazolo[1,5-a]pyridin-2-yl)-6,7-dihydro-1H-imidazo[4,5-c]pyridin-5(4H)-yl)methanone] to `O=C(c1nnc(-c2ccc(F)cc2F)o1)N1CCc2[nH]cnc2[C@@H]1c1cc2ccccn2n1` [Example 653, (R)-(5-(2,4-difluorophenyl)-1,3,4-oxadiazol-2-yl)(4-(pyrazolo[1,5-a]pyridin-2-yl)-6,7-dihydro-1H-imidazo[4,5-c]pyridin-5(4H)-yl)methanone], the AC50 rises from < 0.5 µM to > 5 µM.

For `Cc1cc(F)ccc1-c1nnc(C(=O)N2CCc3[nH]cnc3[C@H]2c2cc3ccccn3n2)o1` [Example 654, (S)-(5-(4-fluoro-2-methylphenyl)-1,3,4-oxadiazol-2-yl)(4-(pyrazolo[1,5-a]pyridin-2-yl)-6,7-dihydro-1H-imidazo[4,5-c]pyridin-5(4H)-yl)methanone], the AC50 was < 0.5 µM.
